Series [1] concerns P. falciparum chloroquine-sensitive (CQS) D6 strain. As to the kind of experiment: Malaria SYBR Green I-based Fluorescence. The format is cell-based, Plasmodium falciparum.
Series [2] deals with P. falciparum chloroquine-resistant (CQR) Dd2 strain. Kind of series: microbe, parasite or virus in culture. The series is classed as cell-based. Particulars: Plasmodium falciparum, DD2, read-out: antimalarial activity (IC50 in nM) Dd2.
For series [3], the system named is P. falciparum chloroquine-resistant (CQR) 7G8 strain. As to the kind of experiment: microbe, parasite or virus in culture. The format is cell-based. Particulars: Plasmodium falciparum, 7G8, read-out: antimalarial activity (IC50 in nM) 7G8.
For series [4], the system named is multidrug-resistant P. yoelii. Particulars: 100 mg/kg/day, oral route; cited from earlier work.
For series [5], the system named is P. yoelii (Kenya strain, MR4 MRA-428). As to the kind of experiment: In vivo efficacy against murine malaria, modified 4-day test, oral gavage. Particulars: mice.
A short description of another series: HepG2 cytotoxicity assay. The format is cell-based. As to conditions: human, cytotoxicity (IC50 in nM) HepG2, HepG2 cells.
Setting [6] is: Plasmodium falciparum, D6, read-out: antimalarial activity (IC50 in nM) D6.

Like-named read-outs stand apart in the source and are kept apart here.

Usually IC50 stands for the point on the concentration scale where inhibition reaches its midpoint. Regarding `c1c[nH]c(CCCNCCNC23CC4CC(CC(C4)C2)C3)c1` [Compound 196, N^1-(3-(Pyrrol-2-yl)propyl)-N^2-(adamantan-1-yl)ethane-1,2-diamine], the half-inhibitory concentration (IC50) in series [1] (setting [6]), in series [2] and in series [3] was greater than 2500 nM in each case.
In the case of `CCC1CCCCCCCCC2=N/C(=C\c3[nH]c(-c4ccc[nH]4)cc3OC)C1=C2` (stereo not shown) [Compound 3b, metacycloprodiginine], the mice cured entry in series [4] is “three of four”.
Turning to `O=C(C=Cc1ccc[nH]1)NCC(=O)NC12CC3CC(CC(C3)C1)C2` [Compound 194], the half-maximal inhibitory concentration (IC50) in series [1] (read-out: antimalarial activity (IC50 in nM) D6) was greater than 2500 nM.
On to `CCN(CC)CCCC(C)Nc1ccnc2cc(Cl)ccc12` (stereo not shown) [CQ, chloroquine], for which the values for the half-inhibitory concentration (IC50) in series [1] (setting [6]), in series [2] and in series [3] were 13 nM, 115 nM and 130 nM, respectively. Moreover, the “% suppression of parasitaemia on day 5” value in series [5] (1 mg/kg × 4 days) was found to be 65%; in series [5] (4 mg/kg × 4 days), 94%; in series [5] (16 mg/kg × 4 days), 100%; in series [5] (64 mg/kg × 4 days) it was 100%.
Regarding `c1c[nH]c(CNCCNC23CC4CC(CC(C4)C2)C3)c1` [Compound 191, N^1-((Pyrrol-2-yl)methyl)-N^2-(adamantan-1-yl)ethane-1,2-diamine], the concentration for half-maximal inhibition (IC50) in series [1] (setting [6]), in series [2] and in series [3] was greater than 2500 nM throughout.
As for `CCCCCCCCCCCC1=N/C(=C\c2[nH]c(-c3ccc[nH]3)cc2OC)C=C1` [Compound 1a, undecylprodiginine, reference compound], the IC50 in series [1] (setting [6]) came out at 7.2 nM; in series [2], 7.5 nM; in series [3] it was 7 nM.
For the compound `OC(c1cc(C(F)(F)F)nc2c(C(F)(F)F)cccc12)C1CCCCN1` (stereo not shown) [MQ, mefloquine], the IC50 in “HepG2 cytotoxicity assay” is 21800 nM.
On to `COC1=CC(c2cccn2C)=NC1=Cc1c(Cc2ccc(Cl)cc2)cc(Cc2ccc(Cl)cc2)n1C` [Compound 87, 5’-((3,5-Bis(4-chlorobenzyl)-1-methyl-pyrrol-2-yl)methylene)-4’-methoxy-1-methyl-2,2’-bipyrrole], for which the half-inhibitory concentration (IC50) in series [1] (setting [6]), in series [2] and in series [3] was greater than 2500 nM throughout.
With `O=C(CNC(=O)c1ccc[nH]1)NC12CC3CC(CC(C3)C1)C2` [Compound 190, N-(2-((Adamantan-1-yl)amino)-2-oxoethyl)-pyrrole-2-carboxamide], the IC50 in series [1] (setting [6]), in series [2] and in series [3] was greater than 2500 nM throughout.
